Data: patent publication US8461160B2, “Dihydropyrimidinones” (Hoffmann-La Roche, Inc., priority 2009, dated 2013)
pIC50: −log10 of the molar value.

target: T1, BACE2 (Homo sapiens, UniProt Q9Y5Z0); assay: Fluorescent-peptide cleavage assay for BACE2 inhibition; format: biochemical; conditions: BACE2 enzyme ectodomain, fluorescent peptide WS EVNLD AEFRC-MR121, assay buffer pH 4.5, room temperature
T1 construct: BACE2 enzyme ectodomain (derived from plasmid “pET17b-T7-hu proBACE2”) was prepared as described in Ostermann et al; T7 tag (N); made in house
T1 sequence (Q9Y5Z0 21-473 limits assumed): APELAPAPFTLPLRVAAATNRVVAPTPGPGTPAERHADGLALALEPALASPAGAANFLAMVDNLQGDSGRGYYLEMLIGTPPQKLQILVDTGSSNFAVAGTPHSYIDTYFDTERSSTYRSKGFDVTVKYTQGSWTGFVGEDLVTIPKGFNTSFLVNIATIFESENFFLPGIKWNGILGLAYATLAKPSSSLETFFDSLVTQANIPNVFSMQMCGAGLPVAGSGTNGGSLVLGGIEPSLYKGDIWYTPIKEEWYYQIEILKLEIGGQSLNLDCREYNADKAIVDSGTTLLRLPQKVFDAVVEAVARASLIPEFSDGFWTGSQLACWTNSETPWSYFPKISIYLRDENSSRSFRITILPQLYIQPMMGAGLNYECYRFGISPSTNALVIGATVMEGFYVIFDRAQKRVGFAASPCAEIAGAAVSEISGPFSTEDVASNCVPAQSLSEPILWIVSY
Procedure: Fluorescent-Peptide Cleavage Assay for BACE2 Inhibition
The pro-enzyme was stored at 4° C. at a concentration of 70 μg/ml.
A fluorescent peptide with the amino acid sequence WS EVNLD AEFRC-MR121 was synthesised and a stock solution of 1.5 mM in DMSO prepared and stored at −20° C. MR121 is a fluorophore with an excitation wavelength of 630 nm and emission wavelength of 695 nm. The MR121 fluorescence is quenched by the N-terminal tryptophan until the peptide is cleaved by BACE2.
Assays were all made in a Corning 384-well black polystyrene non-binding surface microtitre plate with clear flat bottom and using a Plate:Vision (Perkin Elmer) fluorescence reader. To perform the assay an 80 nM solution of BACE2 was prepared in assay buffer (assay buffer is 100 mM Na-acetate; 20 mM EDTA; 0.05% BSA; pH 4.5) and incubated at room temperature for 1 hour to activate the enzyme. 39 μl of the activated BACE2 was placed in each assay well, followed by 1 μl compound to be tested at an appropriate concentration in 100% DMSO. The plate was then mixed and incubated for 10 minutes at room temperature.
The assay readout is the rate of change of fluorescence intensity giving a relative measure of BACE2 activity. Small values correspond to high inhibition and larger values to low inhibition. […] IC50 values were determined using these assay values generated for a range of inhibitor concentrations and the curve fitting software XLfit (IDBS) using the Sigmoidal Dose-Response Model.

In order of rising pIC50:
1. CN1C(=O)C[C@@](C)(c2cccc(NC(=O)c3nccc4ccccc34)c2)N=C1N [Example 56, Isoquinoline-1-carboxylic acid [3-((S)-2-amino-1,4-dimethyl-6-oxo-1,4,5,6-tetrahydro-pyrimidin-4-yl)-phenyl]-amide]  5.53
2. CN1C(=O)C[C@@](C)(c2cccc(NC(=O)c3ccn(CC(F)(F)F)n3)c2)N=C1N [Example 73, 1-(2,2,2-Trifluoro-ethyl)-1H-pyrazole-3-carboxylic acid [3-((S)-2-amino-1,4-dimethyl-6-oxo-1,4,5,6-tetrahydro-pyrimidin-4-yl)-phenyl]-amide]  5.68
3. CN1C(=O)C[C@@](C)(c2cccc(NC(=O)c3ccc4sccc4n3)c2)N=C1N [Example 59, Thieno[3,2-b]pyridine-5-carboxylic acid [3-((S)-2-amino-1,4-dimethyl-6-oxo-1,4,5,6-tetrahydro-pyrimidin-4-yl)-phenyl]-amide]  5.77
4. Cc1nn(C)cc1C(=O)Nc1cccc([C@]2(C)CC(=O)N(C)C(N)=N2)c1 [Example 77, 1,3-Dimethyl-1H-pyrazole-4-carboxylic acid [3-((S)-2-amino-1,4-dimethyl-6-oxo-1,4,5,6-tetrahydro-pyrimidin-4-yl)-phenyl]-amide]  5.80
5. CN1C(=O)C[C@@](C)(c2cccc(NC(=O)c3csc(C(F)(F)F)n3)c2)N=C1N [Example 66, 2-Trifluoromethyl-thiazole-4-carboxylic acid [3-((S)-2-amino-1,4-dimethyl-6-oxo-1,4,5,6-tetrahydro-pyrimidin-4-yl)-phenyl]-amide]  5.81
6. CN1C(=O)C[C@@](C)(c2cccc(NC(=O)c3nc(Cl)ccc3C(F)(F)F)c2)N=C1N [Example 72, 6-Chloro-3-trifluoromethyl-pyridine-2-carboxylic acid [3-((S)-2-amino-1,4-dimethyl-6-oxo-1,4,5,6-tetrahydro-pyrimidin-4-yl)-phenyl]-amide]  5.82
7. CN1C(=O)C[C@@](C)(c2cccc(NC(=O)c3coc(-c4ccccc4)n3)c2)N=C1N [Example 71, 2-Phenyl-oxazole-4-carboxylic acid [3-((S)-2-amino-1,4-dimethyl-6-oxo-1,4,5,6-tetrahydro-pyrimidin-4-yl)-phenyl]-amide]  5.88
8. CN1C(=O)C[C@@](C)(c2cccc(NC(=O)c3nc(Cl)ccc3Cl)c2)N=C1N [Example 54, 3,6-Dichloro-pyridine-2-carboxylic acid [3-((S)-2-amino-1,4-dimethyl-6-oxo-1,4,5,6-tetrahydro-pyrimidin-4-yl)-phenyl]-amide]  6.01
9. CN1C(=O)C[C@@](C)(c2cccc(NC(=O)c3ccc4ccccc4n3)c2)N=C1N [Example 58, Quinoline-2-carboxylic acid [3-((S)-2-amino-1,4-dimethyl-6-oxo-1,4,5,6-tetrahydro-pyrimidin-4-yl)-phenyl]-amide]  6.39
10. CCCOc1cccnc1C(=O)Nc1cccc([C@]2(C)CC(=O)N(C)C(N)=N2)c1 [Example 55, 3-Propoxy-pyridine-2-carboxylic acid [3-((S)-2-amino-1,4-dimethyl-6-oxo-1,4,5,6-tetrahydro-pyrimidin-4-yl)-phenyl]-amide]  6.46
11. CN1C(=O)C[C@@](C)(c2cccc(NC(=O)c3ccc(-n4ccc(C(F)(F)F)n4)cn3)c2)N=C1N [Example 76, 5-(3-Trifluoromethyl-pyrazol-1-yl)-pyridine-2-carboxylic acid [3-((S)-2-amino-1,4-dimethyl-6-oxo-1,4,5,6-tetrahydro-pyrimidin-4-yl)-phenyl]-amide]  6.52
12. CN1C(=O)C[C@@](C)(c2cccc(NC(=O)c3nccc4ccsc34)c2)N=C1N [Example 60, Thieno[2,3-c]pyridine-7-carboxylic acid [3-((S)-2-amino-1,4-dimethyl-6-oxo-1,4,5,6-tetrahydro-pyrimidin-4-yl)-phenyl]-amide]  6.62
13. CN1C(=O)C[C@@](C)(c2cccc(NC(=O)c3ncccc3Sc3ccccc3)c2)N=C1N [Example 61, 3-Phenylsulfanyl-pyridine-2-carboxylic acid [3-((S)-2-amino-1,4-dimethyl-6-oxo-1,4,5,6-tetrahydro-pyrimidin-4-yl)-phenyl]-amide]  6.62
14. COc1cccnc1C(=O)Nc1cccc([C@]2(C)CC(=O)N(C)C(N)=N2)c1 [Example 65, 3-Methoxy-pyridine-2-carboxylic acid [3-((S)-2-amino-1,4-dimethyl-6-oxo-1,4,5,6-tetrahydro-pyrimidin-4-yl)-phenyl]-amide]  6.80
15. Cc1nc(C(=O)Nc2cccc([C@]3(C)CC(=O)N(C)C(N)=N3)c2)cs1 [Example 67, 2-Methyl-thiazole-4-carboxylic acid [3-((S)-2-amino-1,4-dimethyl-6-oxo-1,4,5,6-tetrahydro-pyrimidin-4-yl)-phenyl]-amide]  6.80
16. CN1C(=O)C[C@@](C)(c2cccc(NC(=O)c3ncccc3C(F)(F)F)c2)N=C1N [Example 62, 3-Trifluoromethyl-pyridine-2-carboxylic acid [3-((S)-2-amino-1,4-dimethyl-6-oxo-1,4,5,6-tetrahydro-pyrimidin-4-yl)-phenyl]-amide]  6.82
17. CN1C(=O)C[C@@](C)(c2cccc(NC(=O)c3cc4ccccc4cn3)c2)N=C1N [Example 57, Isoquinoline-3-carboxylic acid [3-((S)-2-amino-1,4-dimethyl-6-oxo-1,4,5,6-tetrahydro-pyrimidin-4-yl)-phenyl]amide]  6.96
18. CN1C(=O)C[C@@](C)(c2cccc(NC(=O)c3cc4ccccc4s3)c2)N=C1N [Example 68, Benzo[b]thiophene-2-carboxylic acid [3-((S)-2-amino-1,4-dimethyl-6-oxo-1,4,5,6-tetrahydro-pyrimidin-4-yl)-phenyl]-amide]  6.99
19. CCOc1cc(C(F)(F)F)cnc1C(=O)Nc1cccc([C@]2(C)CC(=O)N(C)C(N)=N2)c1 [Example 74, 3-Ethoxy-5-trifluoromethyl-pyridine-2-carboxylic acid [3-((S)-2-amino-1,4-dimethyl-6-oxo-1,4,5,6-tetrahydro-pyrimidin-4-yl)-phenyl]-amide]  7.10
20. CN1C(=O)C[C@@](C)(c2cccc(NC(=O)c3ccn(C)n3)c2)N=C1N [Example 69, 1-Methyl-1H-pyrazole-3-carboxylic acid [3-((S)-2-amino-1,4-dimethyl-6-oxo-1,4,5,6-tetrahydro-pyrimidin-4-yl)-phenyl]-amide]  7.21
21. CN1C(=O)C[C@@](C)(c2cccc(NC(=O)c3ccc(OCC(F)(F)F)cn3)c2)N=C1N [Example 63, 5-(2,2,2-Trifluoro-ethoxy)-pyridine-2-carboxylic acid [3-((S)-2-amino-1,4-dimethyl-6-oxo-1,4,5,6-tetrahydro-pyrimidin-4-yl)-phenyl]-amide]  7.22
22. CN1C(=O)C[C@@](C)(c2cccc(NC(=O)c3ncc(Cl)cc3Cl)c2)N=C1N [Example 64, 3,5-Dichloro-pyridine-2-carboxylic acid [3-((S)-2-amino-1,4-dimethyl-6-oxo-1,4,5,6-tetrahydro-pyrimidin-4-yl)-phenyl]-amide]  7.22
23. Cc1cc(Cl)cnc1C(=O)Nc1cccc([C@]2(C)CC(=O)N(C)C(N)=N2)c1 [Example 75, 5-Chloro-3-methyl-pyridine-2-carboxylic acid [3-((S)-2-amino-1,4-dimethyl-6-oxo-1,4,5,6-tetrahydro-pyrimidin-4-yl)-phenyl]-amide]  7.77
24. CN1C(=O)C[C@@](C)(c2cccc(NC(=O)c3ncc(C(F)(F)F)cc3Cl)c2)N=C1N [Example 70, 3-Chloro-5-trifluoromethyl-pyridine-2-carboxylic acid [3-((S)-2-amino-1,4-dimethyl-6-oxo-1,4,5,6-tetrahydro-pyrimidin-4-yl)-phenyl]-amide]  7.80
25. CN1C(=O)C[C@@](C)(c2cncc(NC(=O)c3ccc(Cl)cn3)c2)N=C1N [Example 52, 5-Chloro-pyridine-2-carboxylic acid [5-((S)-2-amino-1,4-dimethyl-6-oxo-1,4,5,6-tetrahydro-pyrimidin-4-yl)-pyridin-3-yl]-amide]  7.96
26. CN1C(=O)C(C)(C)[C@@](C)(c2cc(NC(=O)c3ccc(Cl)cn3)ccc2F)N=C1N [Example 53, 5-Chloro-pyridine-2-carboxylic acid [3-((S)-2-amino-1,4,5,5-tetramethyl-6-oxo-1,4,5,6-tetrahydro-pyrimidin-4-yl)-4-fluoro-phenyl]amide]  8.10
